Columns and labels:
SV2A [1] = details: calculated from K1/k2 using 2TCM-c; cited from earlier work
[2] = Measurement of lipophilicity (octanol / PBS pH 7.4); format: physicochemical; details: octanol/PBS pH 7.4
Experimental: The logP of [^18F]SDM-16 was determined by a method modified from previously published procedures. Briefly, an aliquot of […] (10 µCi) of the radioligand was added to a 2-mL microtube containing 0.8 mL of octanol and 0.8 mL of 1 × phosphate buffered saline (1 × PBS, pH 7.4). The mixture was vortexed for 30 s and then centrifuged at 2000 g for 2 min. A subsample of the octanol (0.1 mL) and 1 × PBS (0.5 mL) layers was evaluated with a gamma counter. The major portion of the octanol layer (0.5 mL) was diluted with another 0.3 mL of octanol, mixed with a fresh portion of 0.8 mL of PBS, vortexed, centrifuged, and analyzed as described above. This process was repeated until consistent log P values were obtained, with five consecutive equilibration procedures being performed for each logP measurement. Four separate measurements were performed for [^18F]SDM-16 on different days.

SV2A [3] = target: SV2A (Macaca mulatta, UniProt H9EQH8); details: previously determined; cited from earlier work
Chain of SV2A (Macaca mulatta, UniProt H9EQH8) (H9EQH8 1-742): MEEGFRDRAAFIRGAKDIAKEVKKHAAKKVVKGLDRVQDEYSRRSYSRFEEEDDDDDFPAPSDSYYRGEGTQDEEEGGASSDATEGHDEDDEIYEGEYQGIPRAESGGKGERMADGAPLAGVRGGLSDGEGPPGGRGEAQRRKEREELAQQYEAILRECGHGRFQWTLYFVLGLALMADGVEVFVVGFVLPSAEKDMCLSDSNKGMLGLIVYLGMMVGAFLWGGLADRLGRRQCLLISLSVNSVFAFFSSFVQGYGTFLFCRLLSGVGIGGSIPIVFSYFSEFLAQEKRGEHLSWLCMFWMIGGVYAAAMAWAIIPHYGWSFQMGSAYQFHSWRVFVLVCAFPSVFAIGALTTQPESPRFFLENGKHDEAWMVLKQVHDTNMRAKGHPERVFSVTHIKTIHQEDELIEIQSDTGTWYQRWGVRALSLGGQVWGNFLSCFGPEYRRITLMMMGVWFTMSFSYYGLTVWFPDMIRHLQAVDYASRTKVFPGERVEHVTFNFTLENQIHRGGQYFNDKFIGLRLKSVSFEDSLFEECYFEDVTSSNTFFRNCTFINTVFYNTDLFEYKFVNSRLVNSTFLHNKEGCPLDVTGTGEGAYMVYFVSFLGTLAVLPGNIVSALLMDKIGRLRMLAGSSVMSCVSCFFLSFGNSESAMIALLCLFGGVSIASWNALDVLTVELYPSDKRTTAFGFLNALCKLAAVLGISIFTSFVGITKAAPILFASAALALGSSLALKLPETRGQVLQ

[4] = Plasma free fraction (fp) by ultrafiltration; format: in vitro ADME, rhesus monkey; details: monkey, plasma (separated from spiked whole blood)
Experimental: The unbound fraction of [^18F]SDM-16 in plasma (fp) of rhesus monkey was measured in triplicate using the ultrafiltration method. Briefly, [^18F]SDM-16 solution was added to 3 mL of whole blood. After incubation at ambient temperature for 5 min, the blood sample was centrifuged at 3900 rpm for 5 min. A sample of the supernatant plasma (0.3 mL) was loaded onto the reservoir of a Centrifree® Ultrafiltration device (Merck Millipore Ltd. Tullagreen, Carrigtwohill, Co. Cork, IRELAND) in triplicate and centrifuged at 1228 g for 20 min. The fp value was calculated as the ratio of radioactivity in the filtrate to that in the plasma.

[5] = design: method as in PMID 33826008; details: 30 min p.i.; cited from earlier work
[6] = estimated from human; cited from earlier work

Compound: O=C1C[C@H](c2cc(F)c(F)c(F)c2)CN1Cc1ccncc1[18F] [[^18F]UCB-H]
- brain tissue free fraction fND (SV2A [1]): 6.1%
- logP [2]: 2.31
- VND (SV2A [3]): 7.89 mL/cm^3
- fraction unbound at 5 min [4]: 0.43
- parent fraction in plasma [5]: 30 ± 3%
- effective dose (ED) [6]: 15.4 µSv/MBq

Source: paper PMC8940841, “A metabolically stable PET tracer for imaging synaptic vesicle protein 2A: synthesis and preclinical characterization of [^18F]SDM-16” (European Journal of Nuclear Medicine and Molecular Imaging, 2021)
